Test results from US20110015162A1, “15,16-Methylene-17-hydroxy-19-nor-21-carboxylic acid-steroid Y-lactone derivative, use thereof and medicinal products containing the derivative” (Bayer Schering Pharma Aktiengesellschaft, priority 2007, published 2011).
Where two headings read alike, the source gives them in different places.

Key:
androgen receptor [1] = molecular target: T1, androgen receptor (Homo sapiens, UniProt P10275); test: Androgen receptor binding test; set-up: expressed in transfected cells
T1 sequence (P10275 1-920): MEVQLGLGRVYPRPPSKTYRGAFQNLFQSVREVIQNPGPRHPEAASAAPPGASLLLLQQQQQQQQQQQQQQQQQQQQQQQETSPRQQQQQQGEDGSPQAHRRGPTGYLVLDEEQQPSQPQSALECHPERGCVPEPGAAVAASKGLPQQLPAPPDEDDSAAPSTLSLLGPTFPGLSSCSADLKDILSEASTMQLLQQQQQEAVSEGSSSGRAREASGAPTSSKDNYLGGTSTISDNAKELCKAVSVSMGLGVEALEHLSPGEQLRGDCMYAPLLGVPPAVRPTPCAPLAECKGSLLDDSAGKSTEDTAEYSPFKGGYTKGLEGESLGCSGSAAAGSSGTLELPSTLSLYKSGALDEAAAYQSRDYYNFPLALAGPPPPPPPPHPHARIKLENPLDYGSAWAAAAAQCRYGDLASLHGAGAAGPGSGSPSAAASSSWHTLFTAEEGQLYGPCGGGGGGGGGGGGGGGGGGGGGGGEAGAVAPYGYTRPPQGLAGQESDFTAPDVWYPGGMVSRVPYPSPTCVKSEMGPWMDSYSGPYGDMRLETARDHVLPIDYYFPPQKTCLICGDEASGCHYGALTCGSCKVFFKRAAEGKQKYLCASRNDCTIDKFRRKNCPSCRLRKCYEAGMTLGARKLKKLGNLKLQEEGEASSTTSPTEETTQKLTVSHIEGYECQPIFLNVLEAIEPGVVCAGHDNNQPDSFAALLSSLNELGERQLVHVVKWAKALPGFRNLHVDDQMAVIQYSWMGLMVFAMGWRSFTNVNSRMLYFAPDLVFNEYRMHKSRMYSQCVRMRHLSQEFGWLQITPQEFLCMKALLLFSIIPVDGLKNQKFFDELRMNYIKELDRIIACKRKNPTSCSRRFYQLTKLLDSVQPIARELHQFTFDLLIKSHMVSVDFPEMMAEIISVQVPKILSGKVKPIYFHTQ
Protocol: Using cytosol from progesterone receptor-expressing insect cells (Hi5), competitive binding to the progesterone receptor was determined from the ability to displace ^3H-progesterone as reference substance from the receptor.
3. Androgen Receptor Binding Test: […]

androgen receptor [2] = molecular target: T1, androgen receptor; test: Androgen receptor binding test; set-up: expressed in transfected cells; details: reference substance 3H-testosterone
androgen receptor [3] = molecular target: T1, androgen receptor; test: Androgenic/antiandrogenic action by transactivation test (PC3 reporter cells); format: cell-based; set-up: expressed in transfected cells; host or cells: PC3 cells
Protocol: (§1) The test compounds were added eight hours later, and the cells were incubated with the compounds for 16 hours. The tests were carried out in triplicate. At the end of incubation the medium containing the effector was removed and replaced with lysis buffer. After luciferase assay substrate (Promega, #E1501) had been added, the 96-well plates were then put in a microplate luminometer (Pherastar, BMG Labtech), and the luminescence was measured. The IC50 values were evaluated using software for calculating dose-effect relations.
6. Determination of Androgenic/Antiandrogenic Action by Means of Transactivation Tests:
The androgenic/antiandrogenic action of the test substances was determined as for the transactivation tests described above.
The following modifications were made: In this case reporter cell lines were used (PC3 cells) that express the androgen receptor, and a reporter construct that contains luciferase under the control of a steroid hormone-responsive promoter.
For determination of the antiandrogenic efficacy, 0.05 nM R1881 was added to the cells, in order to achieve almost maximum stimulation of the reporter gene.

[4] = molecular target: T2, mineralocorticoid receptor (Homo sapiens, UniProt P08235); test: Antimineralocorticoid action by transactivation test (MDCK reporter cells); format: cell-based; set-up: expressed in transfected cells; host or cells: MDCK cells; details: for Emax: read-out: Mineralocorticoid receptor Antagonism efficacy;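 on Emax: percent inhibition of the aldosterone-stimulated reporter signal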;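 on Mineralocorticoid receptor Antagonism efficacy: percent inhibition of the aldosterone-stimulated reporter signal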
T2 sequence (P08235 1-984): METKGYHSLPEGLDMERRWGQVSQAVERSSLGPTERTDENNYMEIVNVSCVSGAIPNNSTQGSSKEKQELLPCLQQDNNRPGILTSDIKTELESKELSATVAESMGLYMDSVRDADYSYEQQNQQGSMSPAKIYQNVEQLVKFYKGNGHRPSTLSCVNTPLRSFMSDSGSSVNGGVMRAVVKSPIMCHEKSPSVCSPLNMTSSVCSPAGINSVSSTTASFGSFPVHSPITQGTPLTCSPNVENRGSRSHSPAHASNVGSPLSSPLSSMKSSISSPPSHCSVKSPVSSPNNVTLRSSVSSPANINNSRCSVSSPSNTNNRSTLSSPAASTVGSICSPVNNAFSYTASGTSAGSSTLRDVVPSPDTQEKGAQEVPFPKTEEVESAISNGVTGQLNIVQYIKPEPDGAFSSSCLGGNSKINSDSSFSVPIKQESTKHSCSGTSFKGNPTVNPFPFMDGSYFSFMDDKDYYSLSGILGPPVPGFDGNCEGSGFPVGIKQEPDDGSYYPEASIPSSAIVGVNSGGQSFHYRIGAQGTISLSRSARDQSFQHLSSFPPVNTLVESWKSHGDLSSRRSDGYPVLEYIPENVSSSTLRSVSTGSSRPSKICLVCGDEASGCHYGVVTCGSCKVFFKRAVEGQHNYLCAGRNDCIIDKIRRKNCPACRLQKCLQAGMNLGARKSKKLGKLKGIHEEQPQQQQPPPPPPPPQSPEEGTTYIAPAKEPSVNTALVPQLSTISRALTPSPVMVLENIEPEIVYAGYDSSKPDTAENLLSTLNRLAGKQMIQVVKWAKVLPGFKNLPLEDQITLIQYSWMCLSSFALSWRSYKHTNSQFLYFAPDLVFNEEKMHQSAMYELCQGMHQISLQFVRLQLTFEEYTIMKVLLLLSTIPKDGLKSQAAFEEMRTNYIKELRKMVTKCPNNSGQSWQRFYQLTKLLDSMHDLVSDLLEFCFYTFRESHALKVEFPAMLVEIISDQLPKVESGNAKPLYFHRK
Protocol: as §1
5. Determination of Antimineralocorticoid Action by Means of Transactivation Tests:
The antimineralocorticoid activity of the test substances was determined as for the transactivation tests described above.
The following modifications were undertaken: In this case reporter cell lines were used (MDCK cells) that express the human mineralocorticoid receptor, and transiently contain a reporter construct that contains luciferase under the control of a steroid hormone-responsive promoter.

[5] = reference substance 3H-testosterone, cytosol from AR-expressing insect cells (Hi5), read-out: Androgen receptor IC50
[6] = PC-3, read-out: Androgen receptor Agonism efficacy
[7] = PC-3, read-out: Androgen receptor Antagonism efficacy
[8] = MDCK cells, with 1 nM aldosterone, read-out: Mineralocorticoid receptor Antagonism IC50
[9] = MDCK cells, with 1 nM aldosterone

Row | SMILES | IC50 (androgen receptor [1]; [5]) | Androgen receptor Competition factor (androgen receptor [2]) | EC50 (androgen receptor [3]) | IC50 (androgen receptor [3]) | Emax (androgen receptor [3]; [6]) | Emax (androgen receptor [3]; [7]) | IC50 [4, 8] | Emax [4, 9] | IC50 (androgen receptor [1]) | IC50 [4] | Emax ([4]; MDCK)
1 | CC[C@]12CC[C@H]3[C@@H](C[C@@H](CO)C4=CC(=O)CC[C@@H]43)[C@@H]1[C@@H]1C[C@@H]1[C@@]21C=CC(=O)O1 [Example 10, 17β-Hydroxy-6β-hydroxymethylene-18-methyl-15β,16β-methylene-19-nor-17α-pregna-4,20(Z)-dien-3-one-21-carboxylic acid γ-lactone] | 1000 nM | 1000.0 | 130 nM | 160 nM | 17.9% | 15.6% | 110 nM | 92.7% | – | – | –
2 | C[C@]12CC[C@H]3[C@@H](CCC4=CC(=O)CC[C@@H]43)[C@@H]1[C@H]1C[C@H]1[C@@]21C=CC(=O)O1 [Example 12, 17β-Hydroxy-15α,16α-methylene-19-nor-17α-pregna-4,20(Z)-dien-3-one-21-carboxylic acid γ-lactone] | – | 16.5 | 130 nM | 86 nM | 14.9% | 61.7% | – | – | 200 nM | 100 nM | 71.4%
3 | C[C@]12CC[C@H]3[C@@H](C=CC4=CC(=O)CC[C@@H]43)[C@@H]1[C@H]1C[C@H]1[C@@]21C=CC(=O)O1 [Example 13, 17β-Hydroxy-15α,16α-methylene-19-nor-17α-pregna-4,6,20(Z)-trien-3-one-21-carboxylic acid γ-lactone] | 5100 nM | 163.2 | 120 nM | 100 nM | 14.4% | 47.4% | 12 nM | 116% | – | – | –
4 | C[C@@H]1CC2=CC(=O)CC[C@@H]2[C@H]2CC[C@@]3(C)[C@@H]([C@H]4C[C@H]4[C@@]34C=CC(=O)O4)[C@@H]21 [Example 14A, 17β-Hydroxy-7α-methyl-15α,16α-methylene-19-nor-17α-pregna-4,20(Z)-dien-3-one-21-carboxylic acid γ-lactone] | – | 2.3 | 13 nM | 1.5 nM | 41.8% | 21% | – | – | 74 nM | 3 nM | 83%
5 | CC[C@@H]1CC2=CC(=O)CC[C@@H]2[C@H]2CC[C@@]3(C)[C@@H]([C@H]4C[C@H]4[C@@]34C=CC(=O)O4)[C@H]12 [Example 15A, 17β-Hydroxy-7α-ethyl-15α,16α-methylene-19-nor-17α-pregna-4,20(Z)-dien-3-one-21-carboxylic acid γ-lactone] | – | 2.2 | 11 nM | – | 49.4% | 5% | – | – | 60 nM | 12 nM | 112%
6 | C=C[C@@H]1CC2=CC(=O)CC[C@@H]2[C@H]2CC[C@@]3(C)[C@@H]([C@H]4C[C@H]4[C@@]34C=CC(=O)O4)[C@@H]21 [Example 16A, 17β-Hydroxy-7α-vinyl-15α,16α-methylene-19-nor-17α-pregna-4;20(Z)-dien-3-one-21-carboxylic acid γ-lactone] | – | 2.6 | 12 nM | – | 62.6% | 5% | – | – | 39 nM | 95 nM | 103%
7 | C[C@]12CC[C@H]3[C@H]([C@@H]1[C@H]1C[C@H]1[C@@]21C=CC(=O)O1)[C@H](C1CC1)CC1=CC(=O)CC[C@@H]13 [Example 17A, 17β-Hydroxy-7α-cyclopropyl-15α,16α-methylene-19-nor-17α-pregna-4,20(Z)-dien-3-one-21-carboxylic acid γ-lactone] | – | 5.2 | 23 nM | 11 nM | 40.8% | 33.7% | – | – | 77 nM | 89 nM | 115%
8 | C[C@]12CC[C@H]3[C@@H](CCC4=C(Cl)C(=O)CC[C@@H]43)[C@@H]1[C@H]1C[C@H]1[C@@]21C=CC(=O)O1 [Example 18, 4-Chloro-17β-hydroxy-15α,16α-methylene-19-nor-17α-pregna-4,20(Z)-dien-3-one-21-carboxylic acid γ-lactone] | – | 7.3 | 12 nM | – | 71.5% | 5% | – | – | 140 nM | 830 nM | 37.3%
9 | C[C@]12CC[C@H]3[C@@H](CCC4=CC(=O)CC[C@@H]43)[C@@H]1[C@@H]1C[C@@H]1[C@@]21C=CC(=O)O1 [Example 19, 17β-Hydroxy-15β,16β-methylene-19-nor-17α-pregna-4,20(Z)-dien-3-one-21-carboxylic acid γ-lactone] | – | 6.4 | 5.3 nM | – | 87.5% | 5% | – | – | 52 nM | 62 nM | 92.8%
10 | C[C@]12CC[C@H]3[C@@H](C[C@@H](CO)C4=CC(=O)CC[C@@H]43)[C@@H]1[C@@H]1C[C@@H]1[C@@]21C=CC(=O)O1 [Example 21, 17β-Hydroxy-6β-hydroxymethylene-15β,16β-methylene-19-nor-17α-pregna-4,20(Z)-dien-3-one-21-carboxylic acid γ-lactone] | 1000 nM | 1000.0 | – | 500 nM | 5% | 15.7% | 160 nM | 68% | – | – | –
